Assays:
[1] = molecular target: T1, PIN1-CD (catalytic PIN1 domain, devoid of the PIN1 WW domain) (Homo sapiens, UniProt Q13526); test: Dissociation constant (Kd) with PIN1 catalytic domain; format: binding; details: peptide containing the catalytic PIN1 domain
T1 construct: PIN1 peptide containing the catalytic peptidyl-prolyl isomerase domain but devoid of the PIN1 WW domain
Source text: (§1) In Table 1, the Ki data reported under the PIN1—CD heading corresponds to testing with PIN1 peptide containing the catalytic peptidyl-prolyl isomerase domain but devoid of the PIN1 WW domain. Similarly, the dissociation constant (Kd) data under PIN1-CD refers to testing with a peptide containing the catalytic PIN1 domain but devoid of the PIN1 WW domain.

[2] = molecular target: T2, PIN1-CD (catalytic peptidyl-prolyl isomerase domain, devoid of the PIN1 WW domain) (Homo sapiens, UniProt Q13526); test: Pin1 peptidyl-prolyl isomerase assay (protease-coupled, spectrophotometric); format: biochemical; details: catalytic PPIase domain without WW domain; 15° C., pH 7.5, 100 μM Suc-AEPF-pNA
T2 construct: PIN1 peptide containing the catalytic peptidyl-prolyl isomerase domain but devoid of the PIN1 WW domain
Source text: PIN1 is a phosphorylation dependent peptidyl-prolyl isomerase. The PIN1 assay is a spectrophotometric assay based on the coupled chymotrypsin or subtilisin catalyzed, cis-trans conformation dependent cleavage of a para-nitroanaline containing peptide substrate. […] Cleavage of the isomerized peptide releases para-nitroanaline, which can be monitored by an increase in absorbance at 390 nm. The PIN1 peptide substrate, succinyl-[…]-proline-phenylalanine-paranitroaniline (Suc-AEPF-pNA) (Bachem), is kept in a predominantly cis conformation with an anhydrous TFE/LiCl solvent mixture.
Upon dilution into an aqueous assay mixture containing PIN1, the peptide substrate undergoes PIN1 catalyzed isomerization to the trans conformation. […] To minimize the spontaneous isomerization of the peptide substrate, reactions are performed at 15° C. A typical reaction contains 25 mM MOPS pH 7.5, 0.5 mM TCEP, 2% DMSO, 5 μl of a 25 mg/ml solution of subtilisin Carlsberg, 50 nM PIN1-PPiase, and 100 μM Suc-AEPF-pNA peptide substrate. Reactions are cooled to 15° C. and initiated with the addition of Suc-AEPF-pNA. The absorbance at 390 nm is monitored continuously until all substrate has been converted to the cleaved product. […] The rate constant k is linearly proportional to the concentration of active enzyme present in the assay mixture once the rate constant for the spontaneous isomerization is subtracted. […] Therefore, during inhibition experiments, the IC50, for non-tight binding inhibitors, is essentially the inhibition constant Ki.
as §1

T1 sequence (Q13526 52-163 limits assumed): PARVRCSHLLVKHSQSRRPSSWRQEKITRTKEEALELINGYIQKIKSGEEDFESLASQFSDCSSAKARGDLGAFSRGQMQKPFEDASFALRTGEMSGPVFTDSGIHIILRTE
T2 sequence (Q13526 52-163 limits assumed): as above

Kd [1] [nM]	Ki [2] [nM]	Compound
< 10000	< 10000	O=C(O)[C@@H]1CCCCN1C(=O)N[C@@H](COP(=O)(O)O)Cc1ccccc1 [Example 16d, 1-(2-Phenyl-1-phosphonooxymethyl-ethylcarbamoyl)-piperidine-2-carboxylic acid]
< 1000	< 1000	O=C(N[C@@H](COP(=O)(O)O)Cc1cccc(F)c1)c1ccc2ccccc2c1Br [Example 25-31, Phosphoric acid mono-[(R)-2-{[1-(1-bromo-naphthalen-2-yl)-methanoyl]-amino}-3-(3-fluoro-phenyl)-propyl]ester]
< 1000	< 1000	O=C(N[C@@H](COP(=O)(O)O)Cc1ccccc1)c1ccc2[nH]cnc2c1 [Example 25-23, Phosphoric acid mono-{(R)-2-[(1H-benzoimidazole-5-carbonyl)-amino]-3-phenyl-propyl}ester]
< 1000	< 1000	CC(C)(C)C(=O)N[C@@H](COP(=O)(O)O)Cc1cccc(F)c1 [Example 25-30, Phosphoric acid mono-[(R)-2-(2,2dimethyl-propanoylamino)-3-(3-fluoro-phenyl)-propyl]ester]
< 1000	< 1000	Cc1cccc(C[C@H](COP(=O)(O)O)NC(=O)c2ccc3ccccc3c2Br)c1 [Example 25-34, Phosphoric acid mono-((R)-2-{[1-(1-bromo-naphthalen-2-yl)-methanoyl]-amino}-3-m-tolyl-propyl)ester]
< 1000	< 1000	COc1ccc2cc(C(=O)N[C@@H](COP(=O)(O)O)Cc3cccc(C)c3)ccc2c1 [Example 25-35, Phosphoric acid mono-((R)-2-{[1-(6-methoxy-naphthalen-2-yl)-methanoyl]-amino}-3-m-tolyl-propyl)ester]
< 1000	< 1000	COc1ccc2cc(C(=O)N[C@@H](COP(=O)(O)O)Cc3cccc(F)c3)ccc2c1 [Example 25-32, Phosphoric acid mono-((R)-3-(3-fluoro-phenyl)-2-{[1-(6-methoxy-naphthalen-2-yl)-methanoyl]-amino}-propyl)ester]

Second part, the compound before the results:

Compound	Kd [1] [nM]	Ki [2] [nM]
O=C(O)[C@@H]1CCCCN1S(=O)(=O)N[C@@H](COP(=O)(O)O)Cc1ccccc1 [Example 5b2, 1-(2-Phenyl-1-phosphonooxymethyl-ethylsulfamoyl)-piperidine-2-carboxylic acid]	< 10000	< 10000
O=P(O)(O)OC[C@@H](Cc1ccccc1)NS(=O)(=O)N1CCCC[C@H]1c1nnc(Cc2ccccc2)o1 [Example 5b5, Phosphoric acid mono-{(R)-2-[(S)-2-(5-benzyl-[1,3,4]oxadiazol-2-yl)-piperidine-1-sulfonylamino]-3-phenyl-propyl}ester]	< 10000	< 10000
O=C(O[C@@H](COP(=O)(O)O)Cc1cccc(F)c1)c1ccc2ccccc2c1 [Example 74, Naphthalene-2-carboxylic acid (R)-1-(3-fluoro-benzyl)-2-phosphonooxy-ethyl ester]	< 1000	< 1000
O=C(OCCCCc1ccccc1)[C@@H]1CCCCN1S(=O)(=O)N[C@@H](COP(=O)(O)O)Cc1ccccc1 [Example 5b1, 1-(2-Phenyl-1-phosphonooxymethyl-ethylsulfamoyl)-piperidine-2S-carboxylic acid 4-phenyl-butyl ester]	< 10000	< 10000
O=C(O[C@@H](COP(=O)(O)O)Cc1ccccc1)c1ccc2ccccc2c1 [Example 49, Naphthalene-2-carboxylic acid (R)-2-phenyl-1-phosphonooxymethyl-ethyl ester]	< 1000	< 1000
CC(C)(C)OC(=O)N[C@@H](COP(=O)(O)O)Cc1cccnc1 [Example 30, (1-Phosphonooxymethyl-2-pyridin-3-yl-ethyl)-carbamic acid tert-butyl ester]	< 10000	< 100000
O=C(O[C@@H](COP(=O)(O)O)Cc1cccc(F)c1)c1cc2ccccc2s1 [Example 54]	< 1000	< 1000
O=C(N[C@H](CCc1ccccc1)COP(=O)(O)O)c1ccc2ccccc2c1 [Example 37, Phosphoric acid mono-{2-[(1-naphthalen-2-yl-methanoyl)-amino]-4-phenyl-butyl}ester]	< 2000	< 10000
O=C(N[C@H](Cc1cccc(F)c1)CP(=O)(O)O)c1cc2ccccc2s1 [Example 98, [2-[(Benzo[b]thiophene-2-carbonyl)-amino]-3-(3-fluoro-phenyl)-propyl]-phosphonic acid]		< 1000

— US20050250742A1 (Pfizer Inc., priority 2004, published 2005)
